IC50 data for 28 compounds are collected here from patent US11529341B2, “Bicyclic compounds as inhibitors of PD1/PD-L1 interaction/activation” (JUBILANT PRODEL LLC, priority 2018, dated 2022).

pIC50: −log10 of the molar value.

The test deals with T1, PD-1/PD-L1 interaction (Homo sapiens, UniProt Q9NZQ7).
T1 construct: Tag1 (undisclosed kit tag); purchased CisBio 63ADK000CPAPEG
T1 sequence (Q9NZQ7 19-238 limits assumed): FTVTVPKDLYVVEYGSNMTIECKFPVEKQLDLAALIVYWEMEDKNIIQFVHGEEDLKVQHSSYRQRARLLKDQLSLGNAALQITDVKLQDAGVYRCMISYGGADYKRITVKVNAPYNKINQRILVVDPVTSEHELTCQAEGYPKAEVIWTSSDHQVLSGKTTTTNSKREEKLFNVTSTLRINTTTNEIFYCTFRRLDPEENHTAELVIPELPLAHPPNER
Description: PD-1/PD-L1 Homogenous Time-Resolved Fluorescence (HTRF) binding assay (CisBio kit). The note with it: Biochemical PD1/PD-L1 inhibition. The gist of the method:
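Tagged PD-L1 and PD-1 proteins preincubated with compound 15 min, then anti-Tag1-Eu3+ donor and anti-Tag2-XL665 acceptor added, 1 h at room temperature. Emission read at 665 and 620 nm; signal expressed as HTRF ratio (665/620)×10^4, loss of signal indicating blocked binding.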
In general terms: In TR-FRET formats the signal depends on donor and acceptor labels being close together.
One may read the pIC50 as the IC50 on a negative log10 scale, so that one unit is a factor of ten. Turning to `Cc1c(COc2c(Cl)cc(CN3C[C@H](O)C[C@H]3C(=O)O)c3c2CCC3)cccc1-c1ccccc1` [Compound 31, (2S,4R)-1-((6-chloro-7-((2-methyl-[1,1′-biphenyl]-3-yl)methoxy)-2,3-dihydro-1H-inden-4-yl)methyl)-4-hydroxypyrrolidine-2-carboxylic acid], the negative logarithm of the IC50 (pIC50) is 6.30 to 7.00.

With `CC(=O)NCCNCc1c(OCc2cncc(C#N)c2)cc(OCc2cccc(-c3ccccc3)c2C)c2c1CCC2` [Compound 48, N-(2-(((5-((5-cyanopyridin-3-yl)methoxy)-7-((2-methyl-[1,1′-biphenyl]-3-yl)methoxy)-2,3-dihydro-1H-inden-4-yl)methyl)amino)ethyl)acetamide], the pIC50 is > 7.00.

Compound `COc1cc(OCc2cccc(-c3ccccc3)c2C#N)c2c(c1CN(C)CCN(C)C(C)=O)CCC2` [Compound 64, N-(2-(((7-((2-cyano-[1,1′-biphenyl]-3-yl)methoxy)-5-methoxy-2,3-dihydro-1H-inden-4-yl)methyl)(methyl)amino)ethyl)-N-methylacetamide] gave a pIC50 of 6.30 to 7.00.

As to `N#Cc1cncc(COc2cc(OCc3cccc(-c4ccccc4)c3C#N)c3c(c2CN2CCC[C@@H](C(=O)O)C2)CCC3)c1` [Compound 71, (R)-1-((7-((2-cyano-[1,1′-biphenyl]-3-yl)methoxy)-5-((5-cyanopyridin-3-yl)methoxy)-2,3-dihydro-1H-inden-4-yl)methyl)piperidine-3-carboxylic acid], the pIC50 is > 7.00.

Take `COc1cc(OCc2cccc(-c3ccccc3)c2C#N)c2c(c1CN1CC3(CC3)C[C@H]1C(=O)O)CCC2` [Compound 61, (S)-5-((7-((2-cyano-[1,1′-biphenyl]-3-yl)methoxy)-5-methoxy-2,3-dihydro-1H-inden-4-yl)methyl)-5-azaspiro[2.4]heptane-6-carboxylic acid]: the pIC50 was > 7.00.

For the compound `CC(=O)NCCNCc1c(OCc2cccc(C#N)c2)cc(OCc2cccc(-c3ccccc3)c2C)c2c1CCC2` [Compound 34, N-(2-(((5-((3-cyanobenzyl)oxy)-7-((2-methyl-[1,1′-biphenyl]-3-yl)methoxy)-2,3-dihydro-1H-inden-4-yl)methyl)amino)ethyl)acetamide], the negative logarithm of the IC50 (pIC50) is > 7.00.

`N#Cc1c(COc2cc(OCCCCC(=O)O)c(CN3CCCC[C@H]3C(=O)O)c3c2CCC3)cccc1-c1ccccc1` [Compound 78, (S)-1-((5-(4-carboxybutoxy)-7-((2-cyano-[1,1′-biphenyl]-3-yl)methoxy)-2,3-dihydro-1H-inden-4-yl)methyl)piperidine-2-carboxylic acid]: the pIC50 was > 7.00.

Take `COc1cc(OCc2cccc(-c3ccccc3)c2C)c2c(c1CN1CC3(CC3)C[C@H]1C(=O)O)CCC2` [Compound 11, (S)-5-((5-methoxy-7-((2-methyl-[1,1′-biphenyl]-3-yl)methoxy)-2,3-dihydro-1H-inden-4-yl)methyl)-5-azaspiro[2.4]heptane-6-carboxylic acid]: the pIC50 is > 7.00.

On to `COc1cc(OCc2cccc(-c3ccccc3)c2C)c2c(c1CN1CCC[C@H]3C[C@]31C(=O)O)CCC2` (racemic) [Compound 45, (1R,6S)-2-((5-methoxy-7-((2-methyl-[1,1′-biphenyl]-3-yl)methoxy)-2,3-dihydro-1H-inden-4-yl)methyl)-2-azabicyclo[4.1.0]heptane-1-carboxylic acid], for which the pIC50 is 6.30 to 7.00.

Compound `Cc1cc(CN2C[C@H](O)C[C@H]2C(=O)O)c2c(c1OCc1cccc(-c3ccccc3)c1C)CCC2` [Compound 29, (2S,4R)-4-hydroxy-1-((6-methyl-7-((2-methyl-[1,1′-biphenyl]-3-yl)methoxy)-2,3-dihydro-1H-inden-4-yl)methyl)pyrrolidine-2-carboxylic acid] gave a pIC50 of 6.30 to 7.00.

The compound `COC(=O)C12CCC(NCc3c(OCc4cccc(C#N)c4)cc(OCc4cccc(-c5ccccc5)c4C)c4c3CCC4)(CC1)CC2` [Compound 73, methyl 4-(((5-((3-cyanobenzyl)oxy)-7-((2-methyl-[1,1′-biphenyl]-3-yl)methoxy)-2,3-dihydro-1H-inden-4-yl)methyl)amino)bicyclo[2.2.2]octane-1-carboxylate] gave a pIC50 of 6.30 to 7.00.

Consider `COc1cc(OCc2cccc(-c3ccccc3)c2C#N)c2c(c1CNC(CO)(CO)CO)CCC2` [Compound 58, 3-(((7-(((1,3-dihydroxy-2-(hydroxymethyl)propan-2-yl)amino)methyl)-6-methoxy-2,3-dihydro-1H-inden-4-yl)oxy)methyl)-[1,1′-biphenyl]-2-carbonitrile], for which the negative logarithm of the IC50 (pIC50) is > 7.00.

Regarding `Cc1c(COc2cc(OCc3cncc(C#N)c3)c(CN3CCCC[C@H]3C(=O)O)c3c2CCC3)cccc1-c1ccccc1` [Compound 46, (S)-1-((5-((5-cyanopyridin-3-yl)methoxy)-7-((2-methyl-[1,1′-biphenyl]-3-yl)methoxy)-2,3-dihydro-1H-inden-4-yl)methyl)piperidine-2-carboxylic acid], the pIC50 is > 7.00.

For `Cc1c(COc2ccc(CNC(CO)(CO)CO)c3c2CCC3)cccc1-c1ccccc1` [Compound 18, 2-(hydroxymethyl)-2-(((7-((2-methyl-[1,1′-biphenyl]-3-yl)methoxy)-2,3-dihydro-1H-inden-4-yl)methyl)amino)propane-1,3-diol], the pIC50 is 6.30 to 7.00.

`CC(=O)NCCNCc1c(OCCCCC(N)=O)cc(OCc2cccc(-c3ccccc3)c2C)c2c1CCC2` [Compound 66, 5-((4-(((2-acetamidoethyl)amino)methyl)-7-((2-methyl-[1,1′-biphenyl]-3-yl)methoxy)-2,3-dihydro-1H-inden-5-yl)oxy)pentanamide] had a pIC50 of 6.30 to 7.00.

`Cc1c(COc2cc(OCCCCC(=O)O)c(CN3CCCC[C@H]3C(=O)O)c3c2CCC3)cccc1-c1ccccc1` [Compound 67, (S)-1-((5-(4-carboxybutoxy)-7-((2-methyl-[1,1′-biphenyl]-3-yl)methoxy)-2,3-dihydro-1H-inden-4-yl)methyl)piperidine-2-carboxylic acid]: the pIC50 is > 7.00.

`COc1cc(OCc2cccc(-c3ccccc3)c2C)c2c(c1CNCCNC(C)=O)CCC2` [Compound 2, N-(2-(((5-methoxy-7-((2-methyl-[1,1′-biphenyl]-3-yl)methoxy)-2,3-dihydro-1H-inden-4-yl)methyl)amino)ethyl)acetamide] showed a pIC50 of 6.30 to 7.00.

With `Cc1c(COc2cc(OCc3cccc(C#N)c3)c(CN3CC4(CC4)C[C@H]3C(=O)O)c3c2CCC3)cccc1-c1ccccc1` [Compound 42, (S)-5-((5-((3-cyanobenzyl)oxy)-7-((2-methyl-[1,1′-biphenyl]-3-yl)methoxy)-2,3-dihydro-1H-inden-4-yl)methyl)-5-azaspiro[2.4]heptane-6-carboxylic acid], the pIC50 was > 7.00.

On to `COc1cc(OCc2cccc(-c3ccccc3)c2C)c2c(c1CN1C[C@H](O)C[C@H]1C(=O)O)CCC2` [Compound 25, (2S,4R)-4-hydroxy-1-((5-methoxy-7-((2-methyl-[1,1′-biphenyl]-3-yl)methoxy)-2,3-dihydro-1H-inden-4-yl)methyl)pyrrolidine-2-carboxylic acid], for which the pIC50 was > 7.00.

With `COc1cc(OCc2cccc(-c3ccccc3)c2C(F)(F)F)c2c(c1CN1CCCC[C@H]1C(=O)O)CCC2` [Compound 75, (S)-1-((5-methoxy-7-((2-(trifluoromethyl)-[1,1′-biphenyl]-3-yl)methoxy)-2,3-dihydro-1H-inden-4-yl)methyl)piperidine-2-carboxylic acid], the pIC50 was < 6.30.

Compound `Cc1c(COc2ccc(CNC3(C(=O)O)CC3)c3c2CCC3)cccc1-c1ccccc1` [Compound 19, 1-(((7-((2-methyl-[1,1′-biphenyl]-3-yl)methoxy)-2,3-dihydro-1H-inden-4-yl)methyl)amino)cyclopropane-1-carboxylic acid] had a pIC50 of 6.30 to 7.00.

As for `CC(=O)NCCNCc1c(OCCCCC#N)cc(OCc2cccc(-c3ccccc3)c2C)c2c1CCC2` [Compound 79, N-(2-(((5-(4-cyanobutoxy)-7-((2-methyl-[1,1′-biphenyl]-3-yl)methoxy)-2,3-dihydro-1H-inden-4-yl)methyl)amino)ethyl)acetamide], the negative logarithm of the IC50 (pIC50) was > 7.00.

As to `CC(=O)NCc1c(OCc2cccc(C#N)c2)cc(OCc2cccc(-c3ccccc3)c2C)c2c1CCC2` [Compound 90, N-((5-((3-cyanobenzyl)oxy)-7-((2-methyl-[1,1′-biphenyl]-3-yl)methoxy)-2,3-dihydro-1H-inden-4-yl)methyl)acetamide], the pIC50 was < 6.30.

For `COc1cc(OCc2cccc(-c3ccccc3)c2C#N)c2c(c1CN1CCCCC1CC(=O)O)CCC2` (stereo not shown) [Compound 63, 2-(1-((7-((2-cyano-[1,1′-biphenyl]-3-yl)methoxy)-5-methoxy-2,3-dihydro-1H-inden-4-yl)methyl)piperidin-2-yl)acetic acid], the pIC50 was 6.30 to 7.00.

`Cc1c(COc2cc(OCCCCC#N)c(CN3CCCC[C@H]3C(N)=O)c3c2CCC3)cccc1-c1ccccc1` [Compound 80, (S)-1-((5-(4-cyanobutoxy)-7-((2-methyl-[1,1′-biphenyl]-3-yl)methoxy)-2,3-dihydro-1H-inden-4-yl)methyl)piperidine-2-carboxamide]: the pIC50 was < 6.30.

For the compound `CC(=O)NCCNCc1cc(C)c(OCc2cccc(-c3ccccc3)c2C)c2c1CCC2` [Compound 28, N-(2-(((6-methyl-7-((2-methyl-[1,1′-biphenyl]-3-yl)methoxy)-2,3-dihydro-1H-inden-4-yl)methyl)amino)ethyl)acetamide], the pIC50 was < 6.30.

With `COc1cc(OCc2cccc(-c3ccccc3)c2C#N)c2c(c1CN1CCCC[C@H]1C(=O)O)CCC2` [Compound 55, (S)-1-((7-((2-cyano-[1,1′-biphenyl]-3-yl)methoxy)-5-methoxy-2,3-dihydro-1H-inden-4-yl)methyl)piperidine-2-carboxylic acid], the negative logarithm of the IC50 (pIC50) was > 7.00.

Regarding `Cc1c(COc2ccc(CNCCC(=O)O)c3c2CCC3)cccc1-c1ccccc1` [Compound 21, 3-(((7-((2-methyl-[1,1′-biphenyl]-3-yl)methoxy)-2,3-dihydro-1H-inden-4-yl)methyl)amino)propanoic acid], the pIC50 is < 6.30.
